Assay: wn = mass fraction of the nth substance listed
Conditions: Liquid, Pycnometric method, w2 = 0.4981

FC(F)C(F)(F)F [pentafluoroethane] + FCF
Conditions	mass density [kg/m3]
376.15 K, 13702 kPa	772.3
376.15 K, 13709 kPa	772.3
376.15 K, 23359 kPa	917.3
376.15 K, 23375 kPa	917.3
376.15 K, 23406 kPa	917.5
377.15 K, 13950 kPa	772.3
377.15 K, 13957 kPa	772.2
377.15 K, 23734 kPa	917.2
377.15 K, 23750 kPa	917.2
377.15 K, 23780 kPa	917.4
378.15 K, 14198 kPa	772.2
378.15 K, 14205 kPa	772.2
378.15 K, 24109 kPa	917.1
378.15 K, 24125 kPa	917.1
378.15 K, 24155 kPa	917.3
379.15 K, 14447 kPa	772.2
379.15 K, 14454 kPa	772.1
379.15 K, 24484 kPa	917
379.15 K, 24500 kPa	917
379.15 K, 24531 kPa	917.2
380.15 K, 14696 kPa	772.1
380.15 K, 14702 kPa	772
380.15 K, 24858 kPa	916.9
380.15 K, 24875 kPa	916.9
380.15 K, 24906 kPa	917.1
381.15 K, 14944 kPa	772.1
381.15 K, 14951 kPa	772
381.15 K, 25233 kPa	916.8
381.15 K, 25250 kPa	916.8
381.15 K, 25282 kPa	917
382.15 K, 15194 kPa	772
382.15 K, 15200 kPa	771.9
382.15 K, 25608 kPa	916.7
382.15 K, 25625 kPa	916.7
382.15 K, 25657 kPa	916.9
383.15 K, 15443 kPa	772
383.15 K, 15449 kPa	771.8
383.15 K, 25983 kPa	916.6
383.15 K, 26000 kPa	916.6
383.15 K, 26033 kPa	916.8
384.15 K, 15692 kPa	771.9
384.15 K, 15699 kPa	771.8
384.15 K, 26358 kPa	916.5
384.15 K, 26375 kPa	916.5
384.15 K, 26408 kPa	916.7
385.15 K, 15942 kPa	771.8
385.15 K, 15948 kPa	771.7
385.15 K, 26733 kPa	916.4
385.15 K, 26750 kPa	916.5
385.15 K, 26784 kPa	916.6
386.15 K, 16192 kPa	771.8
386.15 K, 16198 kPa	771.7
386.15 K, 27107 kPa	916.3
386.15 K, 27125 kPa	916.4
386.15 K, 27159 kPa	916.6
387.15 K, 16442 kPa	771.7
387.15 K, 16448 kPa	771.6
387.15 K, 27482 kPa	916.2
387.15 K, 27500 kPa	916.3
387.15 K, 27533 kPa	916.5
388.15 K, 16692 kPa	771.6
388.15 K, 16698 kPa	771.5
388.15 K, 27856 kPa	916.1
388.15 K, 27874 kPa	916.2
388.15 K, 27907 kPa	916.4
389.15 K, 16942 kPa	771.6
389.15 K, 16948 kPa	771.5
389.15 K, 28231 kPa	916
389.15 K, 28249 kPa	916.1
389.15 K, 28282 kPa	916.3
390.15 K, 17192 kPa	771.5
390.15 K, 17198 kPa	771.4
390.15 K, 28605 kPa	915.9
390.15 K, 28624 kPa	916
390.15 K, 28657 kPa	916.2
391.15 K, 17442 kPa	771.4
391.15 K, 17448 kPa	771.3
391.15 K, 28979 kPa	915.8
391.15 K, 28998 kPa	915.9
391.15 K, 29032 kPa	916.1
392.15 K, 17692 kPa	771.4
392.15 K, 17698 kPa	771.3
392.15 K, 29354 kPa	915.7
392.15 K, 29373 kPa	915.8
392.15 K, 29407 kPa	916
393.15 K, 17943 kPa	771.3
393.15 K, 17949 kPa	771.2
393.15 K, 29728 kPa	915.6
393.15 K, 29782 kPa	915.9
394.15 K, 18193 kPa	771.3
394.15 K, 18199 kPa	771.1
395.15 K, 18444 kPa	771.2
395.15 K, 18450 kPa	771.1
396.15 K, 18701 kPa	771
397.15 K, 18951 kPa	770.9

From the NIST ThermoML archive (doi:10.1007/s10765-010-0766-0)
